Values of other authors, collected in patent publication US20240226212A1, “GENOMIC SEQUENCES FOR YEAST PROBIOTICS” (Worcester Polytechnic Institute, priority 2023, published 2024).

Test system: C. albicans

OCCc1c[nH]c2ccccc12 [tryptophol]
filamentation of C. albicans: shown to inhibit filamentation
